Molecular target: T1, FATP2 (Mus musculus, UniProt O35488)
T1 construct: gene Slc27a2; endogenous full-length FATP2 in native mouse αTC1-6 pancreatic α cell line (ATCC)
Experiment: BODIPY-labelled C18 fatty acid uptake (QBT fluorescence assay)
Format: cell-based
Conditions: native αTC1-6 cells; 1 h preincubation, 37°C; 2.5 μM BODIPY-C18 fatty acid with 0.2% fatty acid-free albumin; uptake read at 60 s
From the text: BODIPY-labelled C18 fatty acid uptake (QBT fluorescence assay) on FATP2 | fatty acid uptake was blocked by the FATP2 inhibitor lipofermata

T1 sequence (O35488 whole entry): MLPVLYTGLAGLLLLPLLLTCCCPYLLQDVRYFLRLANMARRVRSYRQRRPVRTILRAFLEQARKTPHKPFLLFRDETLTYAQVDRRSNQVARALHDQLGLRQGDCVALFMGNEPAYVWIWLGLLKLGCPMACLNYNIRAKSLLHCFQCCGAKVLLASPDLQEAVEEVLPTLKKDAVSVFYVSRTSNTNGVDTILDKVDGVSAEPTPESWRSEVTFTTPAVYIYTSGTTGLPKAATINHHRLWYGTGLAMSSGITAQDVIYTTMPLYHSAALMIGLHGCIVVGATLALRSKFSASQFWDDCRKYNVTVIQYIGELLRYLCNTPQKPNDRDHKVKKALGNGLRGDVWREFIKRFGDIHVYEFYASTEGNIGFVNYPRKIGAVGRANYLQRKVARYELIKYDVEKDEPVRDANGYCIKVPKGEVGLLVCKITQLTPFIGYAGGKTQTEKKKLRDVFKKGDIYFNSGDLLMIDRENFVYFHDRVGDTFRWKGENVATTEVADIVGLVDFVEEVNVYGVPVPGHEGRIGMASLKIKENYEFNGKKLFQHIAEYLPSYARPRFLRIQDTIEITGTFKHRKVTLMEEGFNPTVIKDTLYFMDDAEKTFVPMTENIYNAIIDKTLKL

IC50: 5.4 µM
SMILES: O=C1Nc2ccc(Br)cc2C12NN=C(c1ccccc1)S2 (stereo not shown) [lipofermata, 5-bromo-5′-phenylspiro[3H-1,3,4-thiadiazole-2,3′-indoline]-2-1]

Source: publication PMC12646670, “Fatty acid transport protein 2 inhibition enhances glucose tolerance through α cell–mediated GLP-1 secretion” (The Journal of Clinical Investigation, 2025)
